Test results published in patent US20260209218A1, “3-PHENYLQUINAZOLINONES AS NOVEL ANTI-CANCER THERAPY” (HELMHOLTZ ZENTRUM MÜNCHEN - DEUTSCHES FORSCHUNGSZENTRUM FÜR …, priority 2022, published 2026).

Columns and labels:
HT-1080 wild type cells = test: Cell viability assay (AquaBluer), ferroptosis induction; format: cell-based, human; settings: FIG. 1B; rescued by liproxstatin-1
Protocol: (§1) Cells were seeded on 96-well plates and cultured overnight. On the next day, the medium was changed to medium containing following compounds: RSL3, ML210, erastin, FIN56, FINO2, BSO, iFSP1, icFSP1, Lip-1, DFO, Fer-1, zVAD, Nec-1s, MCC950, olaparib, STS, TNFa, Smac mimic or nigericin at the indicated concentrations. For TAM and Dox treatment, cells were seeded with compounds at the same time. Cell viability was determined 1 h (for nigericin), 24-48 h (for RSL3, ML210, erastin, FIN56, FINO2, iFSP1, icFSP1, STS, TNFa, Smac mimic, and zVAD) or 72 h (for BSO, icFSP1, TAM, and Dox) after the treatment using AquaBluer (MultiTarget Pharmaceuticals, Cat #6015) as an indicator of viable cells according to the manufacturer's protocols. For apoptosis induction, HT-1080 cells were incubated with different concentrations of STS for 24 h. For necroptosis induction, HT-29 cells were incubated with different concentrations of TNFa with Smac mimic (400 nM), and zVAD (30 μM) for 24 h. […] As readout fluorescence was measured at Ex/Em=540/590 nm using a SpectraMax M5 microplate reader with SoftMax Pro v7 (Molecular devices) after 4 hours of incubation in normal cell culture conditions. The relative cell viability (%) was calculated as follows: (fluorescence (FL) of samples−background)/(FL of appropriate control samples−background)×100.

[1] = system: Pfa1 Gpx4^KO cells overexpressing FSP1; test: as above; format: cell-based; settings: FIG. 1A; rescued by liproxstatin-1
Protocol: as §1

hFSP1 = target: T1, hFSP1 (Homo sapiens, UniProt Q9BRQ8); test: Dose-response of screening hits, cell survival by Aquabluer in hFSP1 GPX4 KO cells; format: cell-based; settings: FSP1 overexpressing cells lacking GPX4
T1 construct: expressed in transfected cells; host or cells: Gpx4 KO isogenic fibroblasts (Pfa1, mouse) overexpressing hFSP1
T1 sequence (Q9BRQ8 1-373): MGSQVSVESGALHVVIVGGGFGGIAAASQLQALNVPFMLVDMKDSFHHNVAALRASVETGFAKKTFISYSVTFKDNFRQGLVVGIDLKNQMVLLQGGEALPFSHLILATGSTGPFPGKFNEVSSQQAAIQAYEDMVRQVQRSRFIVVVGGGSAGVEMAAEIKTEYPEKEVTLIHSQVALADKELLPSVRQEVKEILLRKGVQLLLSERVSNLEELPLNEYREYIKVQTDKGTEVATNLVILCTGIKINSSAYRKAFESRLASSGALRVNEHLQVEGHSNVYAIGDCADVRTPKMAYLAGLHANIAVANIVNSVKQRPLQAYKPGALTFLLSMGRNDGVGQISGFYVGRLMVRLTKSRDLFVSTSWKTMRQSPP
Protocol: To identify new small molecule inhibitors that induce ferroptosis in FSP1 overexpressing cells lacking GPX4, hFSP1 GPX4 KO as well as FSP1 GPX4 wild type (WT) isogenic fibroblasts were screened using a subtractive high throughput screening (HTS) approach. As such, both cell lines were plated in parallel and screened against HMGU libraries at a fixed concentration of 10 μM. Cell survival was evaluated using the LIVE/DEAD assay Aquabluer. The percentage (%) of viable cells was determined for both wild type (WT) and knockout (KO) cell lines. Hits were considered as compounds that induce ferroptosis in KO but not in WT cells. Subsequently, positive hits were assayed in a dose-response manner to establish EC50 values of respective compounds (see Table 2).

[2] = Microsomal stability, mouse liver microsomes; format: in vitro ADME; settings: Balb/c, pH 7.4, 0.42 mg microsomal protein per ml, 37° C., five time points over 40 minutes
Protocol: (§2) The objective of this study was to determine metabolic stability of 4 test articles and reference compounds in human and mouse liver microsomes at five time points over 40 minutes using HPLC-MS. Metabolic stability is defined as the percentage of parent compound lost over time in the presence of a metabolically active test system.
(§3) Microsomal incubations were carried out in 96-well plates in 5 aliquots of 30 μL each (one for each time point). Liver microsomal incubation medium comprised of phosphate buffer (100 mM, pH 7.4), MgCl2 (3.3 mM), NADPH (3 mM), glucose-6-phosphate (5.3 mM), glucose-6-phosphate dehydrogenase (0.67 units/ml) with 0.42 mg of liver microsomal protein per ml. In the control reactions, the NADPH-cofactor system was substituted with phosphate buffer. Test compounds (2 μM, final solvent concentration 1.6%) were incubated with microsomes at 37° C., shaking at 100 rpm. Five time points over 40 minutes were analyzed. The reactions were stopped by adding 5 volumes of acetonitrile with internal standard to incubation aliquots, followed by protein sedimentation by centrifuging at 5500 rpm for 5 minutes. Each reaction was performed in duplicates. Supernatants were analyzed using the HPLC system coupled with a tandem mass spectrometer.
(§4) The elimination constant (kel), half-life (t1,2), and intrinsic clearance (Clint) were determined in a plot of In(AUC) versus time, using linear regression analysis:^1

[3] = Pharmacokinetics after a single intraperitoneal dose, plasma by LC-MS/MS; format: in vivo, male Balb/cAnN mice; settings: mouse, IP, 10 mg/kg
Protocol: The purpose of this study was to determine the pharmacokinetic characteristics of compound 13 in male Balb/cAnN mice following intraperitoneal (IP) administration. Levels of the test compound were determined by LC-MS/MS in the blood plasma samples over time after a single dose.
Study design, animal selection, handling and treatment were all in accordance with the Enamine PK study protocols and Institutional Animal Care and Use Guidelines (BACUC approval number #HC-PK-10112023). Animal treatment and samples preparation were conducted by the Animal Laboratory personnel at Enamine/Bienta. Male Balb/cAnN mice (10 weeks old, body weight ranged from 19.6 g to 23.3 g and average body weight across all groups 21.0 g, SD=0.9 g) were used in this study. The animals were randomly assigned to the treatment groups before the pharmacokinetic study; all animals were fasted for 4 h before dosing. Six sampling time points (5, 15, 30, 60, 120, and 360 min) were set for this pharmacokinetic study. Each of the time point treatment group included 4 animals. There was also a control group of one vehicle-dosed animal. Dosing was done according to the treatment Schedules outlined in Table 5. Mice were injected IP with 2,2,2-tribromoethanol at the dose of 150 mg/kg prior to drawing the blood. Blood collection was performed from the orbital sinus in microtainers containing K3EDTA. Animals were sacrificed by cervical dislocation after the blood samples collection. Blood samples were centrifuged for 10 min at 3000 rpm. All samples were immediately processed, flash-frozen and stored at −70° C. until subsequent analysis.
Plasma samples (40 μl) were mixed with 200 μl of IS(90) solution. After mixing by pipetting and centrifuging for 4 min at 6000 rpm, 0.25 μl of each supernatant was injected into LC-MS/MS system.
Analyses of plasma samples were conducted by the Bioanalytical Laboratory personnel at Enamine/Bienta. The concentrations of 13 in samples were determined using high performance liquid chromatography/tandem mass spectrometry (HPLC-MS/MS). Shimadzu HPLC system comprised 2 isocratic pumps LC-10ADvp, an autosampler SIL-20AC, a sub-controller FCV-14AH and a degasser DGU-14A. Mass spectrometric analysis was performed using an API 3000 (triple-quadrupole) instrument from AB Sciex (Canada) with an electro-spray (ESI) interface. The data acquisition and system control were performed using Analyst 1.6.3 software from AB Sciex.
The concentrations of the test compound below the lower limit of quantitation (LLOQ=100 ng/ml) were designated as zero. The pharmacokinetic data analysis was performed using noncompartmental, bolus injection or extravascular input analysis models in WinNonlin 5.2 (PharSight). Data below LLOQ were presented as missing to improve the validity of T½ calculations.

[4] = Microsomal stability, human liver microsomes; format: in vitro ADME; settings: pH 7.4, 0.42 mg microsomal protein per ml, 37° C., five time points over 40 minutes
Protocol: as §2, §3, §4

[5] = system: WT hFSP1 or its mutants S187C, L217R and Q319K; test: Saturation transfer difference (STD) NMR; format: binding; settings: FIG. 9; 5 μM recombinant human FSP1, 100-fold molar excess of compound, 10° C.
Protocol: Saturation transfer difference (STD) experiments were performed at Bruker Avance III HD spectrometer at 600 MHz ^1H frequency using a H/N/C triple resonance cryogenic probe. Spectra were recorded at 10° C. with 5 μM recombinant human FSP1 (mutant) and 100-fold molar excess of icFSP1 in phosphate-buffer saline with additional 150 mM NaCl, 1% (v/v) DMSO-d6 and 10% (v/v) D2O for deuterium-lock. Saturation time was 2.5 sec and on- and off-frequencies were 0.68 and −17 ppm, respectively. NMR spectra were processed using Topspin 4.0.6 (Bruker).

[6] = system: Gpx4 KO/Fsp1KO double mutant murine melanoma cells (B16F10) reconstituted with human FSP1; test: Syngeneic subcutaneous tumor model; format: in vivo, C57BL6/J mice
Protocol: All mice were obtained from Charles River. For the syngeneic subcutaneous tumor experiments, Gpx4^KO/Fsp1^KO 1B16F10 cells stably overexpressing hFSP1-HA (1×10^6 cells in 100 μL PBS) were injected subcutaneously into the right flank of 7-week-old female C57BL6/J mice. After tumors reached a size of approximately 25-50 mm^3, mice were randomized and treated with vehicle or icFSP1 (50 mg/kg, Intonation) by i.p. injections twice per day for 4-5 days. For generating tumor samples for staining, Gpx4^KO/Fsp1^KO 1B16F10 cells stably expressing hFSP1-WT-HA or hFSP1-Q319K-HA (1×10^6 cells in 100 μL PBS) were injected subcutaneously into the right flank of 7-week-old female C57BL6/J mice. After tumors reached a size of approximately 50-150 mm^3, mice were treated with vehicle or icFSP1 (50 mg/kg, Intonation) by i.p. injections twice per day for 3 days.
(§5) icFSP1 was dissolved in 45% PEG E 300 (Sigma, Cat #91462-1 KG) and 55% PBS (Gibco, Cat #14190094). Tumors were measured by caliper every day and tumor volume was calculated by the following formula: Tumor volume=length×width^2×0.52. When tumor sizes were either larger than 1000 mm^3 at measurement or tumors became necrotic, these tumors were considered to be human endpoints. When tumors became human endpoints, the experiment was stopped at that point and no further experiments were conducted.

[7] = system: H460 GPX4 KO cells (a human lung cancer cell line); test: Xenograft subcutaneous tumor model, H460; format: in vivo, Athymic Nude mice; settings: FIG. 11C; 50 mg/kg i.p. twice per day from day 8
Protocol: For the xenograft subcutaneous tumor experiments, GPX4^KO H460 cells (5×10^6 cells in 100 μL PBS) were injected subcutaneously into the right flanks of 6-week-old female athymic nude mice. After tumors reached a size of approximately 100 mm^3, mice were randomized and treated with vehicle or icFSP1 (50 mg/kg, Intonation) by i.p. injections twice per day.
as §5

[8] = system: GPX4 KO human melanoma cells (A375); test: Xenograft subcutaneous tumor model, A375; format: in vivo, nude mice; settings: FIG. 3B; treatment from day 3 post implantation, 50 mg/kg i.p.
Protocol: For the xenograft subcutaneous tumor experiments, GPX4^KO A375 cells (5×10^6 cells in 100 μL PBS) were injected subcutaneously into the right flank of 7-week-old female athymic nude mice. After tumors reached a size of approximately 25-100 mm^3, mice were randomized and treated with vehicle or icFSP1 (50 mg/kg, Intonation) by i.p. injections twice per day for the first 4 days and afterward once daily.
as §5

[9] = system: ferroptosis-resistant tumor cells; settings: background statement, references 16-18; cited from earlier work

Structure (SMILES): COc1cc(CC(=O)Nc2ccc(-n3c(C)nc4ccccc4c3=O)cc2)cc(OC)c1OC [Compound 1]
- ferroptosis induction (cell death, AquaBluer) (HT-1080 wild type cells): efficiently induces ferroptosis
- ferroptosis induction (cell death, AquaBluer) [1]: efficiently induces ferroptosis
- EC50 (hFSP1): < 1000 nM

Structure (SMILES): Cc1nc2ccccc2c(=O)n1-c1ccc(NC(=O)Cc2ccccc2)cc1 [Compound 13, N-(4-(2-methyl-4-oxoquinazolin-3(4H)-yl)phenyl)-2-phenylacetamide]
- microsomal CLint at 2 μM [2]: 6 µL/min/mg
- plasma concentration relative to the EC50 value ([3]; based on the total drug concentration): 10 fold
- Cmax ([3]; male, Balb/cAnN, plasma): 10200 ng/mL
- Tmax ([3]; male, Balb/cAnN, plasma): 15 min
- AUC(0-t) ([3]; male, Balb/cAnN, plasma, read-out: AUC0→t = 60 min (AUClast) (converted)): 30000 ng·h/mL
- AUC(0-inf) ([3]; male, Balb/cAnN, plasma, read-out: AUC0→∞ (AUCINF_obs) (converted)): 33500 ng·h/mL
- MRT inf ([3]; male, Balb/cAnN, plasma, read-out: MRT (MRTinf) (converted)): 2.52 h
- MRT last ([3]; male, Balb/cAnN, plasma, read-out: MRT (MRTlast) (converted)): 1.78 h
- half-life ([3]; male, Balb/cAnN, plasma, read-out: T1/2 (HL_Lambda_z)): 114 min
- Kel (Lambda_z) ([3]; plasma): 0.00608 min⁻¹
- microsomal CLint at 2 μM [4]: 12 µL/min/mg
- EC50 (hFSP1): > 1000 nM

Structure (SMILES): COc1cc(CC(=O)Nc2ccc(-n3c(C)nc4ccccc4c3=O)cc2)cc(OC)c1OC [icFSP1]
- binding by STD spectra [5]: show binding of icFSP1
- tumor growth (tumor volume, tumor weight) ([6]; FIG. 3A, treatment from day 6 post implantation, 50 mg/kg i.p. twice per day): inhibited tumor growth in both human and mouse tumors significantly
- tumor growth, hFSP1 WT versus FSP1-Q319K expressing cells ([6]; FIG. 10E, 50 mg/kg i.p. twice per day from day 6): inhibits tumor growth of hFSP1 WT but not of FSP1-Q319K expressing cells
- tumor growth [7]: inhibits tumor growth in vivo
- tumor growth [8]: inhibited tumor growth in both human and mouse tumors significantly

Structure (SMILES): Cc1ccc(-c2c(C#N)c(N)n3c(nc4ccccc43)c2C#N)cc1 [iFSP1, 1-amino-3-(4-methylphenyl)-pyrido[1,2-a]benzimidazole-2,4-dicarbonitrile]
- sensitisation towards ferroptosis [9]: efficiently sensitizes ferroptosis-resistant tumor cells towards ferroptosis
